# Assay results published in US10874743B2, “IRAK degraders and uses thereof” (Kymera Therapeutics, Inc., priority 2017, dated 2020).
# Target: T1, IRAK4 (Homo sapiens, UniProt Q9NWZ3)
# T1 sequence (Q9NWZ3 1-460): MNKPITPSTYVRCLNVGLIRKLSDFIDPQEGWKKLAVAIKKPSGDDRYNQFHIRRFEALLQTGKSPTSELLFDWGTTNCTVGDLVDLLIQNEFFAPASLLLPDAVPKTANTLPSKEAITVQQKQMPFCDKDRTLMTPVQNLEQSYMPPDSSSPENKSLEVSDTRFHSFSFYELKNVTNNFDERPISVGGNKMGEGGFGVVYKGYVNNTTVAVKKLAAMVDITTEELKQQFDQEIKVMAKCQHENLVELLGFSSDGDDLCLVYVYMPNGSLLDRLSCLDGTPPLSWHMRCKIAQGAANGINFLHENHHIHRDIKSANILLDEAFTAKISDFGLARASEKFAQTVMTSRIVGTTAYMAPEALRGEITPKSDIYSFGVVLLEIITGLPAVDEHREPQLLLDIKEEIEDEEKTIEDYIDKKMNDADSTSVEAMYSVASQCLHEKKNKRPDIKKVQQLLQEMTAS
# Assay: OCI-LY-10 degradation assay (western blot, % IRAK4 degraded after 4 hours)
# Type: cell-based
# Parameters: endogenous in cells; host or cells: OCI-LY10
# Settings: OCI-LY10 cells, IRAK4 degraded after 4 hours, western blot
# Outline: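 OCI-LY10 cells (RPMI-1640, 20% FBS, 55 μM 2-ME) treated with compound at 0.003-10 μM final for 4 h at 37° C, then lysed in RIPA buffer. IRAK4 level read by fluorescent western blot (20-25 μg protein) and binned as % degraded: A >50%, B >20-50%, C <20%.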
row,OCI-LY10 % IRAK4 Degradation,Compound
1,B (>20-50% degradation),NC(=O)c1nn(-c2cccc(C(=O)NCCOCCOCCOCCOCCNc3cccc4c3C(=O)N(C3CCC(=O)NC3=O)C4=O)c2)cc1NC(=O)c1coc(-c2ccnc(NCC(F)(F)F)c2)n1 (stereo not drawn) [I-136]
2,A (>50% degradation),NC(=O)c1nn(-c2ccc(C(=O)NCCOCCOCCNc3cccc4c3C(=O)N(C3CCC(=O)NC3=O)C4=O)cc2)cc1NC(=O)c1coc(-c2ccnc(NCC3CC3)c2)n1 (stereo not drawn) [I-138]
3,B (>20-50% degradation),NC(=O)c1nn(C2CCC(C(=O)NCCOCCOCCNc3cccc4c3C(=O)N(C3CCC(=O)NC3=O)C4=O)CC2)cc1NC(=O)c1coc(-c2ccnc(NCC(F)(F)F)c2)n1 (stereo not drawn) [I-139]
4,B (>20-50% degradation),NC(=O)c1nn(-c2ccc(C(=O)NCCOCCOCCNc3cccc4c3C(=O)N(C3CCC(=O)NC3=O)C4=O)nc2)cc1NC(=O)c1coc(-c2ccnc(NCC(F)(F)F)c2)n1 (stereo not drawn) [I-143]
5,A (>50% degradation),NC(=O)c1nn(-c2ccc(C(=O)NCCOCCOCCCc3cccc4c3C(=O)N(C3CCC(=O)NC3=O)C4=O)cc2)cc1NC(=O)c1coc(-c2ccnc(NCC(F)(F)F)c2)n1 (stereo not drawn) [I-147]
6,B (>20-50% degradation),NC(=O)c1nn(-c2ccc(C(=O)NCCOCCOCCOCCOCCCc3ccc4c(c3)C(=O)N(C3CCC(=O)NC3=O)C4=O)cc2)cc1NC(=O)c1coc(-c2ccnc(NCC(F)(F)F)c2)n1 (stereo not drawn) [I-148]
7,A (>50% degradation),NC(=O)c1nn(-c2ccc(C(=O)NCCOCCOCCOCCOCC#Cc3ccc4c(c3)C(=O)N(C3CCC(=O)NC3=O)C4=O)cc2)cc1NC(=O)c1coc(-c2ccnc(NCC(F)(F)F)c2)n1 (stereo not drawn) [I-149]
8,A (>50% degradation),NC(=O)c1nn(-c2ccc(C(=O)NCC3CN(CCOCCNc4cccc5c4C(=O)N(C4CCC(=O)NC4=O)C5=O)CCO3)cc2)cc1NC(=O)c1coc(-c2ccnc(NCC(F)(F)F)c2)n1 (stereo not drawn) [I-151]
9,C (<20% degradation),"NC(=O)c1nn(C2CN(CCOCCOCCOCCNc3cccc4c3C(=O)N(C3CCC(=O)NC3=O)C4=O)C2)cc1NC(=O)c1coc(-c2ccnc(NCC(F)(F)F)c2)n1 (stereo not drawn) [I-169, N-[3-carbamoyl-1-[1-[2-[2-[2-[2-[[2-(2,6-dioxo-3-piperidyl)-1,3-dioxo-isoindolin-4-yl]amino]ethoxy]ethoxy]ethoxy]ethyl]azetidin-3-yl]pyrazol-4-yl]-2-[2-(2,2,2-trifluoroethylamino)-4-pyridyl]oxazole-4-carboxamide]"
10,B (>20-50% degradation),"NC(=O)c1nn(C2CCN(CCOCCOCCOCCNc3cccc4c3C(=O)N(C3CCC(=O)NC3=O)C4=O)CC2)cc1NC(=O)c1coc(-c2ccnc(NCC(F)(F)F)c2)n1 (stereo not drawn) [I-170, N-[3-carbamoyl-1-[1-[2-[2-[2-[2-[[2-(2,6-dioxo-3-piperidyl)-1,3-dioxo-isoindolin-4-yl]amino]ethoxy]ethoxy]ethoxy]ethyl]-4-piperidyl]pyrazol-4-yl]-2-[2-(2,2,2-trifluoroethylamino)-4-pyridyl]oxazole-4-carboxamide]"

# Second part, the compound before the results:
row,Compound,OCI-LY10 % IRAK4 Degradation
1,"Cc1ncsc1-c1ccc(CNC(=O)C2C[C@@H](O)CN2C(=O)[C@@H](NC(=O)COCCOCCOCCOCCOC(C)(C)C(F)CNC(=O)c2cnc(-n3ncc4cc(C#N)cnc43)cc2NC2CC2)C(C)(C)C)cc1 (stereo partly drawn) [I-118, 6-(5-Cyanopyrazolo[3,4-b]pyridin-1-yl)-4-(cyclopropylamino)-N-[2-fluoro-3-[2-[2-[2-[2-[2-[[(1S)-1-[(4R)-4-hydroxy-2-[[4-(4-methylthiazol-5-yl)phenyl]methylcarbamoyl]pyrrolidine-1-carbonyl]-2,2-dimethyl-propyl]amino]-2-oxo-ethoxy]ethoxy]ethoxy]ethoxy]ethoxy]-3-methyl-butyl]pyridine-3-carboxamide]",C (<20% degradation)
2,Cc1ncsc1-c1ccc(CNC(=O)C2C[C@@H](O)CN2C(=O)[C@@H](NC(=O)COCCOCCOCCOCCOC(C)C(F)CNC(=O)c2cnc(-n3ncc4cc(C#N)cnc43)cc2NC2CC2)C(C)(C)C)cc1 (stereo partly drawn) [I-121],C (<20% degradation)
3,Cc1ncsc1-c1ccc(CNC(=O)[C@@H]2C[C@@H](O)CN2C(=O)[C@@H](NC(=O)COCCOCCOCCOCCOCC(=O)N2CCN([C@H]3CC[C@H](Oc4ncnc5sc6c(c45)[C@@H](C[C@H](O)C(N)=O)CC6)CC3)CC2)C(C)(C)C)cc1 [I-123],C (<20% degradation)
4,"Cc1ncsc1-c1ccc(CNC(=O)[C@@H]2C[C@@H](O)CN2C(=O)[C@@H](NC(=O)COCCOCCOCCOCCOCCN2CCN([C@H]3CC[C@H](Oc4ncnc5sc6c(c45)[C@@H](C[C@H](O)C(N)=O)CC6)CC3)CC2)C(C)(C)C)cc1 [I-124, (2S,4R)-1-[(2S)-2-[[2-[2-[2-[2-[2-[2-[4-[4-[[(8R)-8-[(2S)-3-amino-2-hydroxy-3-oxo-propyl]-7,8-dihydro-6H-cyclopenta[4,5]thieno[1,2-c]pyrimidin-1-yl]oxy]cyclohexyl]piperazin-1-yl]ethoxy]ethoxy]ethoxy]ethoxy]ethoxy]acetyl]amino]-3,3-dimethyl-butanoyl]-4-hydroxy-N-[[4-(4-methylthiazol-5-yl)phenyl]methyl]pyrrolidine-2-carboxamide]",C (<20% degradation)
5,"Cc1ncsc1-c1ccc(CNC(=O)[C@@H]2C[C@@H](O)CN2C(=O)[C@@H](NC(=O)COCCCCCCCCNC(=O)c2ccc(-n3cc(NC(=O)c4coc(-c5ccnc(NCC(F)(F)F)c5)n4)c(C(N)=O)n3)cc2)C(C)(C)C)cc1 [I-125, N-[3-carbamoyl-1-[4-[8-[2-[[(1S)-1-[(2S,4R)-4-hydroxy-2-[[4-(4-methylthiazol-5-yl)phenyl]methylcarbamoyl]pyrrolidine-1-carbonyl]-2,2-dimethyl-propyl]amino]-2-oxo-ethoxy]octylcarbamoyl]phenyl]pyrazol-4-yl]-2-[2-(2,2,2-trifluoroethylamino)-4-pyridyl]oxazole-4-carboxamide]",C (<20% degradation)
6,"CC[C@@H]1[C@H](F)C(=O)N[C@@H]1COc1ncc(C#Cc2ccc(C(=O)NCCOCCOCCOCCNc3cccc4c3C(=O)N(C3CCC(=O)NC3=O)C4=O)cc2)c2cc(C(N)=O)c(OC)cc12 (stereo partly drawn) [I-126, 4-[2-[4-[2-[2-[2-[2-[[2-(2,6-Dioxo-3-piperidyl)-1,3-dioxo-isoindolin-4-yl]amino]ethoxy]ethoxy]ethoxy]ethylcarbamoyl]phenyl]ethynyl]-1-[[(2S,3S,4S)-3-ethyl-4-fluoro-5-oxo-pyrrolidin-2-yl]methoxy]-7-methoxy-isoquinoline-6-carboxamide]",B (>20-50% degradation)
7,CC(C)(OCCNCCOCCNc1cccc2c1C(=O)N(C1CCC(=O)NC1=O)C2=O)C(F)CNC(=O)c1cnc(-n2ncc3cc(C#N)cnc32)cc1NC1CC1 (stereo not drawn) [I-129],C (<20% degradation)
8,CC(C)(OCCOCCNCCOCCNc1cccc2c1C(=O)N(C1CCC(=O)NC1=O)C2=O)C(F)CNC(=O)c1cnc(-n2ncc3cc(C#N)cnc32)cc1NC1CC1 (stereo not drawn) [I-131],C (<20% degradation)
9,NC(=O)c1nn(-c2ccc(C(=O)NCCOCCOCCNc3cccc4c3C(=O)N(C3CCC(=O)NC3=O)C4=O)cc2)cc1NC(=O)c1cccc(-c2ccnc(NCC(F)(F)F)c2)n1 (stereo not drawn) [I-137],B (>20-50% degradation)
10,NC(=O)c1nn(-c2ccc(C(=O)NCCOCCOCCNc3cccc4c3C(=O)N(C3CCC(=O)NC3=O)C4=O)cc2)cc1NC(=O)c1coc(-c2ccncc2)n1 (stereo not drawn) [I-140],B (>20-50% degradation)
11,N[C@@H]1CCCC[C@@H]1Nc1ccn2nc(-c3cn(-c4ccc(C(=O)NCCOCCOCCNc5cccc6c5C(=O)N(C5CCC(=O)NC5=O)C6=O)cc4)nc3C(F)F)cc2n1 (stereo partly drawn) [I-142],B (>20-50% degradation)
12,NC(=O)[C@@H](O)C[C@H]1CCc2sc3ncnc(O[C@H]4CC[C@H](N5CCN(C(=O)COCCNc6cccc7c6C(=O)N(C6CCC(=O)NC6=O)C7=O)CC5)CC4)c3c21 (stereo partly drawn) [I-153],C (<20% degradation)
13,"NC(=O)[C@@H](O)C[C@H]1CCc2sc3ncnc(OC4CCC(N5CCN(C(=O)COCCOCCNc6cccc7c6C(=O)N(C6CCC(=O)NC6=O)C7=O)CC5)CC4)c3c21 (stereo partly drawn) [I-160, (2S)-3-[(8R)-1-[4-[4-[2-[2-[2-[[2-(2,6-dioxo-3-piperidyl)-1,3-dioxo-isoindolin-4-yl]amino]ethoxy]ethoxy]acetyl]piperazin-1-yl]cyclohexoxyl-7,8-dihydro-6H-cyclopenta[4,5]thieno 1,2-c]pyrimidin-8-yl]-2-hydroxy-propanamide]",C (<20% degradation)
14,"NC(=O)[C@@H](O)C[C@H]1CCc2sc3ncnc(OC4CCC(N5CCN(C(=O)COCCOCCOCCOCCNc6cccc7c6C(=O)N(C6CCC(=O)NC6=O)C7=O)CC5)CC4)c3c21 (stereo partly drawn) [I-161, (2S)-3-[(8R)-1-[4-[4-[2-[2-[2-[2-[2-[[2-(2,6-dioxo-3-piperidyl)-1,3-dioxo-isoindolin-4-yl]amino]ethoxy]ethoxy]ethoxy]ethoxy]acetyl]piperazin-1-yl]cyclohexoxy]-7,8-dihydro-6H-cyclopenta[4,5]thieno[1,2-c]pyrimidin-8-yl]-2-hydroxy-propanamide]",C (<20% degradation)
